1 compound from patent US20170151219A1, “ANTIPERSPIRANT AGENT” (OSAKA UNIVERSITY, priority 2014, published 2017) can be followed below.

For assay [1], the system named is human. The experiment in a line: Observation of skin symptom after oral administration of mTOR inhibitor. To be noted: orally 10 mg per day, FIG. 3. Type of assay: in vivo. As to the method: An influence on a skin exerted by a mTOR inhibitor was observed.
Specifically, a mTOR inhibitor (everolimus (Afinitor (Registered Trademark)) was orally administered to a human by 10 mg per day, and a symptom appeared on the skin was observed.
Specifically, (a) of FIG. 3 is a photograph showing a state of the skin before the mTOR inhibitor is administered, and (b) of FIG. 3 is a photograph showing a state of the skin after the mTOR inhibitor is administered.

The test system of assay [2] is patient of renal angiomyolipoma in consequence of tuberous sclerosis. Briefly: Amount of sweating measured with local perspiration meter during and after oral mTOR inhibitor. Type of assay: in vivo, human. To be noted: FIG. 4. As to the method: To a patient of renal angiomyolipoma in consequence of tuberous sclerosis, the mTOR inhibitor (everolimus (Afinitor (Registered Trademark))) was orally administered by 10 mg per day for approximately four months, and then the oral administration of the mTOR inhibitor was withdrawn.
During the period, after the oral administration of the mTOR inhibitor was started, an amount of sweating on a normal skin of the patient was measured with time and an amount of sweating on a skin of the patient on which a symptom of vitiligo appeared was measured with time.
The amount of sweating was measured with use of a local perspiration meter (quantitative axon reflex sweat amount measuring device) manufactured by Skinos Giken, and a specific measuring method was in conformity to a protocol attached to the device.

[3] abbreviates: orally 10 mg per day for approximately four months.

Regarding `CO[C@H]1C[C@@H]2CC[C@@H](C)[C@@](O)(O2)C(=O)C(=O)N2CCCC[C@H]2C(=O)O[C@H]([C@H](C)C[C@@H]2CC[C@@H](OCCO)[C@H](OC)C2)CC(=O)[C@H](C)/C=C(\C)[C@@H](O)[C@@H](OC)C(=O)[C@H](C)C[C@H](C)/C=C/C=C/C=C/1C` [everolimus], the “symptom appeared on the skin” value in assay [1] is listed as “dry skin”. Further, in assay [2] (normal skin and vitiligo skin, after withdrawal of oral administration), the “amounts of sweating after withdrawal of administration” value is on record as “restored”. Besides, in assay [2] (setting [3]), the “amount of sweating on the normal skin” value is on record as “reduced” and the “amount of sweating on the skin showing the symptom of vitiligo” value was “reduced”.
